Source: paper PMC13101830 (Pharmaceutical research, 2023)
Where a SMILES comes first, the peptide text is derived from it.

Test system: BBB-mimicking system with the co-culture of bEnd.3 and astrocytes
Experiment: In vitro BBB permeability assay in BBB-mimicking co-culture model
Type: in vitro ADME, mouse
Conditions: 10 μg/ml in top chamber, 30-120 min, 37°C

## N[C@@H](Cc1cnc[nH]1)C(=O)N[C@@H](Cc1ccc(O)cc1)C(=O)O [His-Tyr] (H-His-Tyr-OH)
  permeability coefficient (Pe), apical to basolateral (A > B): 0.12 ± 0.02 × 10^−5 cm^2/second
